Our source for the TGI values is PubChem BioAssay (NCI).

SMILES strings stand for the structures. Where “and” joins values, the source holds several entries; their conditions need not be identical. Equal entries are not always repeated.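 The compound was tested at five concentrations on cells cultured in 96-well plates, with a 48-hour exposure period. TGI: total growth inhibition.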

The first assay concerns SK-MEL-2 melanoma. Kind of assay: NCI anticancer screen, dose series, 48 h.
As for `COC(=O)[C@@H]1CO[C@H](C(C)(C)C)N1C(=O)N1C=CC(=O)C[C@H]1C`, the TGI is over 100 µM.

With `COc1cc(C2c3cc4c(cc3OC(NN)C2C)OCO4)cc(OC)c1O` (stereo unspecified), the TGI was 13.1 µM.

`NC1=NC2(COC(c3ccccc3)(c3ccccc3)c3ccccc3)OC(COC(c3ccccc3)(c3ccccc3)c3ccccc3)C(O)C2O1` (stereo unspecified) yielded a TGI of 85.5 µM.

The compound `CC(SC(=S)N1CCOCC1)C(=O)Nc1nnc(-c2ccc(Cl)cc2)o1` (stereo unspecified) showed a TGI of over 100 µM.

`CC1(C)O[C@@H]2[C@@H](COC(C)(C)O[C@H]2C2SCCCS2)O1` came in with a TGI of over 100 µM.

For the compound `O=C(CCc1cc(O)cc(O)c1)NCCc1cc(O)cc(OCc2ccccc2)c1`, the TGI was over 100 µM.

In turn, `O=C(O)CCCc1ccc2c(c1)CC1(C2)Cc2cc3c(cc2C1)CCCC3` came in with a TGI of 35.3 µM.

Consider `O=C(NCCN(CCNC(=O)c1cccc(O)c1O)CCNC(=O)c1cccc(O)c1O)c1cccc(O)c1O`, for which the TGI is over 100 µM.

In turn, `O=[N+]([O-])c1cccc2nc3ccccc3c(NCCCCCNc3c4ccccc4nc4cccc([N+](=O)[O-])c34)c12` displayed a TGI of 0.285 µM.

With `COC(=O)c1c(C)cccc1/C=C1\Cc2ccc(C)c(C)c2C1=O`, the TGI is over 100 µM.

Regarding `O=C(c1ccccc1)C1(Br)S(=O)(=O)OCCOS1(=O)=O`, the TGI was over 100 µM.

As for `C1CCC(N=C2N(C3CCCCC3)C(=NC3CCCCC3)N2C2CCCCC2)CC1`, the TGI was over 100 µM.

`O=S(=O)(/N=C(\NO)Nc1ccc(Cl)cc1)c1cc(C(F)(F)F)cc(C(F)(F)F)c1` returned a TGI of 32.7 µM.

Another assay concerns M14 melanoma. The experiment in a line: NCI anticancer screen, dose series, 48 h.
Compound `COC1(OC)CCc2c(sc3ncnc(Nc4cccc(Br)c4)c23)C1` displayed a TGI of over 100 µM.

Compound `O=[N+]([O-])c1ccc(/C=N/Nc2nc3ccccc3[nH]2)o1` had a TGI of 27.6 µM.

Compound `COC(=O)C1CCC(=O)N1CN(C(C)=O)c1cccc(O)c1` (stereo unspecified) registered a TGI of over 100 µM.

Consider `O=C(Nn1c(-c2ccccc2)nc2ccccc2c1=O)c1ccc(Cl)cc1`, for which the TGI is over 100 µM.

On to `Cc1nc2sc3cccc(Cl)c3n2c(=O)c1N=Nc1ccc(Cl)cc1`, for which the TGI was over 100 µM.

`O=C1c2ccccc2N2OC3(N4CCOCC4)CCCC3C12c1ccccc1` (stereo unspecified) had a TGI of over 100 µM.

`COC(=O)[C@@H]1CO[C@H](C(C)(C)C)N1C(=O)N1C=CC(=O)C[C@H]1C` yielded a TGI of over 100 µM.

Turning to `COc1cc(C2c3cc4c(cc3OC(NN)C2C)OCO4)cc(OC)c1O` (stereo unspecified), the TGI is over 100 µM.

The compound `NC1=NC2(COC(c3ccccc3)(c3ccccc3)c3ccccc3)OC(COC(c3ccccc3)(c3ccccc3)c3ccccc3)C(O)C2O1` (stereo unspecified) returned a TGI of over 100 µM.

In the case of `CC(SC(=S)N1CCOCC1)C(=O)Nc1nnc(-c2ccc(Cl)cc2)o1` (stereo unspecified), the TGI was over 100 µM.

Regarding `CC1(C)O[C@@H]2[C@@H](COC(C)(C)O[C@H]2C2SCCCS2)O1`, the TGI is over 100 µM.

Compound `O=C(CCc1cc(O)cc(O)c1)NCCc1cc(O)cc(OCc2ccccc2)c1` had a TGI of over 100 µM.

On to `O=C(O)CCCc1ccc2c(c1)CC1(C2)Cc2cc3c(cc2C1)CCCC3`, for which the TGI amounted to 30.9 µM.

The compound `O=C(NCCN(CCNC(=O)c1cccc(O)c1O)CCNC(=O)c1cccc(O)c1O)c1cccc(O)c1O` had a TGI of over 100 µM.

Take `O=[N+]([O-])c1cccc2nc3ccccc3c(NCCCCCNc3c4ccccc4nc4cccc([N+](=O)[O-])c34)c12`: the TGI is 0.198 µM and 0.024 µM.

In the case of `COC(=O)c1c(C)cccc1/C=C1\Cc2ccc(C)c(C)c2C1=O`, the TGI was over 100 µM.

With `O=C(c1ccccc1)C1(Br)S(=O)(=O)OCCOS1(=O)=O`, the TGI was over 100 µM.

In turn, `C1CCC(N=C2N(C3CCCCC3)C(=NC3CCCCC3)N2C2CCCCC2)CC1` registered a TGI of over 100 µM.

Compound `O=S(=O)(/N=C(\NO)Nc1ccc(Cl)cc1)c1cc(C(F)(F)F)cc(C(F)(F)F)c1` showed a TGI of 32.1 µM.

The subject of a further assay is ACHN renal. The experiment in a line: NCI anticancer screen, dose series, 48 h.
As for `COC1(OC)CCc2c(sc3ncnc(Nc4cccc(Br)c4)c23)C1`, the TGI is over 100 µM.

Regarding `COC(=O)C1CCC(=O)N1CN(C(C)=O)c1cccc(O)c1` (stereo unspecified), the TGI was over 100 µM.

Compound `O=C(Nn1c(-c2ccccc2)nc2ccccc2c1=O)c1ccc(Cl)cc1` displayed a TGI of over 100 µM.

On to `Cc1nc2sc3cccc(Cl)c3n2c(=O)c1N=Nc1ccc(Cl)cc1`, for which the TGI is over 100 µM.

`O=C1c2ccccc2N2OC3(N4CCOCC4)CCCC3C12c1ccccc1` (stereo unspecified) registered a TGI of over 100 µM.

`COC(=O)[C@@H]1CO[C@H](C(C)(C)C)N1C(=O)N1C=CC(=O)C[C@H]1C` had a TGI of over 100 µM.

`NC1=NC2(COC(c3ccccc3)(c3ccccc3)c3ccccc3)OC(COC(c3ccccc3)(c3ccccc3)c3ccccc3)C(O)C2O1` (stereo unspecified) had a TGI of over 100 µM.

`CC(SC(=S)N1CCOCC1)C(=O)Nc1nnc(-c2ccc(Cl)cc2)o1` (stereo unspecified) had a TGI of over 100 µM.

`CC1(C)O[C@@H]2[C@@H](COC(C)(C)O[C@H]2C2SCCCS2)O1` yielded a TGI of over 100 µM.

On to `O=C(CCc1cc(O)cc(O)c1)NCCc1cc(O)cc(OCc2ccccc2)c1`, for which the TGI came out at 81.6 µM.

In turn, `O=C(O)CCCc1ccc2c(c1)CC1(C2)Cc2cc3c(cc2C1)CCCC3` returned a TGI of 33.1 µM.

As to `O=C(NCCN(CCNC(=O)c1cccc(O)c1O)CCNC(=O)c1cccc(O)c1O)c1cccc(O)c1O`, the TGI is over 67.7 µM.

Turning to `O=[N+]([O-])c1cccc2nc3ccccc3c(NCCCCCNc3c4ccccc4nc4cccc([N+](=O)[O-])c34)c12`, the TGI was 0.115 µM and 0.0165 µM.

`COC(=O)c1c(C)cccc1/C=C1\Cc2ccc(C)c(C)c2C1=O` yielded a TGI of over 100 µM.

Turning to `O=C(c1ccccc1)C1(Br)S(=O)(=O)OCCOS1(=O)=O`, the TGI is over 100 µM.

On to `C1CCC(N=C2N(C3CCCCC3)C(=NC3CCCCC3)N2C2CCCCC2)CC1`, for which the TGI is over 100 µM.

`O=S(=O)(/N=C(\NO)Nc1ccc(Cl)cc1)c1cc(C(F)(F)F)cc(C(F)(F)F)c1` registered a TGI of 31.3 µM.

The subject of the next assay is HOP-62 NSCLC. Kind of assay: NCI anticancer screen, dose series, 48 h.
`COC1(OC)CCc2c(sc3ncnc(Nc4cccc(Br)c4)c23)C1`: the TGI was over 100 µM.

In the case of `O=[N+]([O-])c1ccc(/C=N/Nc2nc3ccccc3[nH]2)o1`, the TGI stood at 35.4 µM.

For the compound `COC(=O)C1CCC(=O)N1CN(C(C)=O)c1cccc(O)c1` (stereo unspecified), the TGI is over 100 µM.

The compound `O=C(Nn1c(-c2ccccc2)nc2ccccc2c1=O)c1ccc(Cl)cc1` returned a TGI of over 100 µM.

For `Cc1nc2sc3cccc(Cl)c3n2c(=O)c1N=Nc1ccc(Cl)cc1`, the TGI is over 100 µM.

`O=C1c2ccccc2N2OC3(N4CCOCC4)CCCC3C12c1ccccc1` (stereo unspecified) registered a TGI of over 100 µM.

`COC(=O)[C@@H]1CO[C@H](C(C)(C)C)N1C(=O)N1C=CC(=O)C[C@H]1C` had a TGI of over 100 µM.

Turning to `NC1=NC2(COC(c3ccccc3)(c3ccccc3)c3ccccc3)OC(COC(c3ccccc3)(c3ccccc3)c3ccccc3)C(O)C2O1` (stereo unspecified), the TGI is over 100 µM.

`CC(SC(=S)N1CCOCC1)C(=O)Nc1nnc(-c2ccc(Cl)cc2)o1` (stereo unspecified) gave a TGI of over 100 µM.

As to `CC1(C)O[C@@H]2[C@@H](COC(C)(C)O[C@H]2C2SCCCS2)O1`, the TGI is over 100 µM.

`O=C(CCc1cc(O)cc(O)c1)NCCc1cc(O)cc(OCc2ccccc2)c1` had a TGI of over 100 µM.

`O=C(O)CCCc1ccc2c(c1)CC1(C2)Cc2cc3c(cc2C1)CCCC3` showed a TGI of 3.54 µM.

The compound `O=C(NCCN(CCNC(=O)c1cccc(O)c1O)CCNC(=O)c1cccc(O)c1O)c1cccc(O)c1O` yielded a TGI of over 91.6 µM.

The compound `COC(=O)c1c(C)cccc1/C=C1\Cc2ccc(C)c(C)c2C1=O` showed a TGI of over 100 µM.

As for `O=C(c1ccccc1)C1(Br)S(=O)(=O)OCCOS1(=O)=O`, the TGI was over 100 µM.

Compound `C1CCC(N=C2N(C3CCCCC3)C(=NC3CCCCC3)N2C2CCCCC2)CC1` had a TGI of over 100 µM.

Take `O=S(=O)(/N=C(\NO)Nc1ccc(Cl)cc1)c1cc(C(F)(F)F)cc(C(F)(F)F)c1`: the TGI is 36.9 µM.
